Data reported in US20020156301A1, “Triphenylmethane derivatives and use thereof” (Sumitomo Chemical Co., Ltd., priority 1997, published 2002).
Marks after values point to notes of the source that are not given here.

Columns and labels:
[1] = tested on: α- and β-isoforms of human estrogen receptor; assay: Antiestrogenic activity: ERE-luciferase reporter in HeLa cells transfected with hERα or hERβ, with 17β-estradiol; format: cell-based; details: relative luminescence for β-isoform divided by that for α-isoform, 17β-estradiol 100 pM (α), 1 nM (β)
Text: cDNA fragments for α- and β-isoforms of human estrogen receptor were cloned from a human liver cDNA library (Toyobo Co, Ltd.) by RT-PCR using oligonucleotides having the following base sequences as primers. For cloning the a-isoform, oligonucleotides 5′-[…]-3′ and 5′-[…]-3′ were used, while oligonucleotides 5′-[…]-3′ and 5′-[…]-3′ were used for cloning the β-isoform. The CDNA fragments for the α- and β-isoforms obtained by the RT-PCR procedures were blunt-ended, and each inserted into a vector for expression pRc/RSV (Invitrogen) at its blunt-ended Hind III cleavage site to obtain expression plasmids pRc-RSV-hERα and pRc-RSV-hERβ. In addition, an oligonucleotide 5′-[…]-3′ comprising an estrogen response element was inserted into a vector pGV-P (Toyo Ink Mfg. Co., Ltd.) at the Sma I cleavage site to obtain a luciferase reporter plasmid pGV-ERE.
Separately, HeLa cells which had been subcultured in Eagle's MEM medium containing 10% (v/v) phenol red-free and active charcoal-treated serum were inoculated in 24-well plates (φ16 mm well) at a density of 40,000 cells/well, cultured for 24 hours at 37° C. in the presence of 5% CO2, and then the medium was exchanged with serum-free Eagle's MEM medium.
The above expression plasmid pRc-RSV-hERα or pRc-RSV-hERβ, and the luciferase reporter plasmid pGV-ERE incorporating the estrogen response element were transfected into the above HeLa cells using the lipofectin method. Specifically, 0.3 μg of the expression plasmid pRc-RSV-hERα or pRc-RSV-hERβ, 0.1 μg of pGV-ERE, and 0.35 μl of Lipofectin mixed together, and added to the above HeLa cells. The HeLa cells were then cultured for 6 hours at 37° C. in the presence of 5% CO2. Next, the medium was exchanged with Eagle's MEM medium containing 10% serum (active charcoal-treated), and the cultivation was continued overnight at 37° C. under 5% CO2. Furthermore, the medium was exchanged with Eagle's MEM medium containing 10% serum (active charcoal-treated) which had been further supplemented with a solution of a test compound in DMSO (or DMSO alone) and 17β-estradiol (final concentration: 100 pM for the α-isoform, and 1 nM for the β-isoform), and the cells were cultured for 48 hours. After removing the medium and washing the cells twice with PBS(−), 50 μl/well of a lysis solution was added, and the cells were lysed at room temperature. An aliquot of this cell lysate was mixed with a luciferase assay substrate solution (Toyo Ink Mfg. Co., Ltd.), and the luminescence was measured using a luminometer. For each of α- and β-isoforms of estrogen receptor, the relative value of luminescence obtained in each experiment in which 17β-estradiol and a solution of one of test compounds in DMSO were added was then calculated, considering the luminescence obtained when 17β-estradiol and DMSO were added as 100. Next, the antiestrogenic activity (β/α) was calculated by dividing the relative value thus obtained for the β-isoform by that for the α-isoform.

ovariectomized rats = assay: Effects on ovariectomized rat: bone mineral density of tibial epiphysis; format: in vivo; details: 17 administrations, average for 5-8 animals, OVX control 79.9
Text: Six-weeks old female SD rats (Charles River Japan) were subjected to ovariectomy of right and left ovaries, after one-week pre-feeding. Firstly, the hairs around the both flanks of the rats were shaved away. After anesthetizing the rat with diethyl ether, the area around the flanks was disinfected, and incised about 1 cm below the last ribs. The ovaries and uterus were extracted along with fats through the incision, and the ovaries were excised after ligating between ovaries and uterus with suture. The uterus and fats were then returned into the abdomens, and the incision was sutured. For rats receiving mock operations, ovaries were extracted as described above, and then returned into the abdomens as they were without ligature and excision. The rats which received such operations were divided into groups of four animals, and each group was housed in a polypropylene cage, and fed with chow (CRF-1; Charles River Japan) and water ad libitum.
A compound was weighed out into a mortar, and the crystals were finely ground with a pestle. To the ground compound, 1% hydroxypropyl cellulose (HPC, 150-400 cP) was then added in small amounts while rubbing for suspending and mixing the compound to prepare an administration liquid having a given concentration of the compound. Such liquids for administration were newly prepared every week.
The weights of ovariectomized rats described above were measured at an interval of one week, and the doses of the above liquid for administration were determined based on the weights. The same doses were used for one week until the next weight measurement. Administration to rats was started at one week after the ovariectomy, and the above liquids for administration were orally administered 17 times in total to groups of 5-8 animals through a 2 ml volume syringe attached with a metal sonde and once a day at a frequency of 5 times a week. […] The bone mineral density of the tibial epiphysis proximal to the knee was measured by an area scanning method.

[2] = tested on: Rat osteoblastic cell line UMR 106; assay: Effects on osteoblast: ALP activity and TGFβ amount; format: cell-based; details: two days, corrected for protein; for ALP activity, relative value considering the value for control as 1: UMR 106 cells; for TGFβ, relative value considering the value for control as 1: UMR 106 medium supernatant
Method: Rat osteoblastic cell line UMR 106 was subcultured in Eagle's MEM medium containing 10% fetal bovine serum (active charcoal-treated), inoculated in 6-well plates (φ 36 mm well) at a density of 20,000 cells/well, and cultured overnight in 2 ml/well of the same serum-containing Eagle's MEM medium at 37° C. in the presence of 5% CO2. On the following day, the medium was aspirated, and the wells were washed by adding 1 ml/well of serum-free Eagle's MEM medium supplemented with Supplement A (a solution of insulin, transferrin, and selenium; Gibco BRL). After aspirating the washings, 2 ml/well of serum-free Eagle's MEM medium supplemented with Supplement A was newly added, and the cultivation was further continued at 37° C. Two days after the medium exchange, the medium was aspirated from each well. Into the wells, 2 ml/well of serum-free Eagle's MEM medium containing Supplement A to which a solution of a test compound in DMSO (or DMSO alone) had been added and mixed was then added, and the cultivation was further continued at 37° C. Two days after the addition of compound, the medium was collected, centrifuged (14,000 rpm, 5 minutes), and the supernatant was aliquoted. To each 0.6 ml aliquot, 20 μl of 1N HCl was added, mixed and then they were stored with ice-cooling. On the other hand, the wells from which the medium had been removed were washed twice with PBS (−). After thoroughly removing the residual liquid, 0.5 ml/well of extra pure water was added, and the cells were harvested, and stored at −80° C. The ice-cold medium supernatant described above was neutralized with 1N NaOH, and 100 μl aliquot thereof was sampled, and used in quantifying TGFβ using an ELISA kit for TGFβ (Biochemical Research Institute, Morinaga Milk Industry Co. Ltd.). On the other hand, the frozen cells were thawed by bringing them to room temperature. The cell suspension thus obtained by thawing the frozen cells was then centrifuged (14,000 rpm, 5 minutes), and 50 μl of the supernatant was used in measurement of alkaline phosphatase (ALP) activity. ALP activity was measured according to the method of Lowry [J. Biol. Chem. vol. 207, 19-37 (1954)]. The samples remained without being used for measurements of TGFβ and ALP activity were used in quantification of protein according to the method of Lowry [J. Biol. Chem. vol. 193, 265-275 (1951)].
The relative values for the amount of TGFβ and the ALP activity after correcting for the amounts of protein are shown in Table 2.

Row | Compound | Antiestrogenic activity (β/α) ([1]; compound 0.1 μM) | Antiestrogenic activity (β/α) ([1]; compound 1 μM) | Antiestrogenic activity (β/α) ([1]; compound 10 μM) | Bone mineral density (ovariectomized rats; 50 mg/kg-weight/day oral) | ALP activity, relative value considering the value for control as 1 ([2]; compound 0.1 μM) | TGFβ, relative value considering the value for control as 1 ([2]; compound 0.1 μM) | ALP activity, relative value considering the value for control as 1 ([2]; compound 1 μM) | TGFβ, relative value considering the value for control as 1 ([2]; compound 1 μM) | Bone mineral density (ovariectomized rats; 0.1 mg/kg-weight/day oral)
1 | Cc1cc(C(c2ccc(OCCN(C)C)cc2)c2cc(C)c(O)cc2C)c(C)cc1O [Compound 1, bis(2,5-dimethyl-4-hydroxyphenyl)[4-(2-dimethylamino-1-ethoxy)phenyl]methane] | 5.2 | 8.6 | 3.0 | 88.0* mg/cm^2 | 2.0 | 1.4 | 5.4 | 1.1 | 
2 | Cc1cc(C(c2cccc(OCCN(C)C)c2)c2cc(C)c(O)cc2C)c(C)cc1O [Compound 2, bis(2,5-dimethyl-4-hydroxyphenyl)[3-(2-dimethylamino-1-ethoxy)phenyl]methane] | 19 | 5.5 | 2.3 | 91.2* mg/cm^2 | 1.5 |  |  |  | 
3 | Cc1cc(C(c2cccc(OCCN(C)C)c2)c2cc(C)c(O)c(C)c2C)c(C)c(C)c1O [Compound 3] | 2.6 | 4.0 | 2.0 |  |  |  |  |  | 
4 | Cc1cc(C(c2ccc(OCCN(C)C)cc2)c2cc(C)c(O)c(C)c2)cc(C)c1O [Compound 4] | 1.5 | 14 | 5.0 |  |  |  |  |  | 
5 | Cc1cc(C(c2cccc(OCCN(C)C)c2)c2cc(C)c(O)c(C)c2)cc(C)c1O [Compound 5] |  | 8.4 | 5.0 |  |  |  |  |  | 
6 | C#C[C@]1(O)CC[C@H]2[C@@H]3CCc4cc(O)ccc4[C@H]3CC[C@@]21C [ethinyl estradiol, reference compound] |  |  |  |  |  |  |  |  | 88.6* mg/cm^2
7 | Hydroxytamoxifen [reference compound] | 1.3 | 1.9 | 1.5 |  |  |  |  |  | 
